US20020032193A1, “Use of potassium channel openers for the treatment of insulitis” (priority 2000, published 2002)

Tests used:
ischemic heart = details: Garlid KD et al., Circulation Res 1997; cited from earlier work
Rat islets [1] = experiment: Islet recovery after streptozotocin exposure; assay type: cell-based, Sprague-Dawley rats
Experimental: (§1) Pancreata from Sprague-Dawley rats were collagenase digested and islets collected with a braking pipette as previously described (Sandler S et al., Endocrinology, 1987;121:1424-31). Islets were precultured free floating in RPMI 1640 medium with 10% (v/v) fetal calf serum (FCS) and 11 mM glucose for 3 days in 5% CO2 at 37° C. before experiments. Medium was changed two times during preculture. Islets were then transferred to sterile Petri dishes in KRBH (Krebs-Ringer bicarbonate with HEPES) medium with 2 mg/mL bovine serum albumin (BSA) and 5.6 mM glucose.
(§2) Stock solutions of test compounds dissolved in dimethyl sulphoxide were prepared and added to the Petri dishes. Islets were incubated in 5% CO2 at 37° C. for 30 minutes with or without test compounds and STZ in 0.9% NaCl was then added to a final concentration of 0.5 mM. Dry powder of alloxan was diluted to a stock of 50 mM just before the addition to the Petri dishes to a final concentration of 0.5 mM. The incubation continued for another 30 minutes and was terminated by the addition of 1 mL of cold KRBH. […]
About 100 islets per condition were carefully transferred to a glass tube and spun down at 800 rpm for 1 minute. […] For estimation of islet recovery, 30 islets from each condition were transferred to Petri dishes as described above and the remaining islets counted after 24 hours.

Rat islets [2] = experiment: Insulin secretion and islet insulin content after streptozotocin exposure; assay type: cell-based, Sprague-Dawley rats; details: 24 hours; for insulin content compared to islets incubated with STZ alone / insulin secretion compared to islets incubated with STZ alone: pre-incubated with KATP channel opener, then 0.5 mM STZ
Experimental: as §1
(§3) Stock solutions of test compounds dissolved in dimethyl sulphoxide were prepared and added to the Petri dishes. Islets were incubated in 5% CO2 at 37° C. for 30 minutes with or without test compounds and STZ in 0.9% NaCl was then added to a final concentration of 0.5 mM. Dry powder of alloxan was diluted to a stock of 50 mM just before the addition to the Petri dishes to a final concentration of 0.5 mM. The incubation continued for another 30 minutes and was terminated by the addition of 1 mL of cold KRBH. The islets were then washed twice in KRBH and studied for morphology and insulin secretion, or cultured for 2 or 24 hours in RPMI with 10% FCS and 11 mM glucose prior to morphological and biochemical examinations.
(§4) Triplicates of five islets were transferred to 200 μl of KRBH with 2 mg/mL BSA and 16.7 mM glucose and incubated for 60 minutes in 5% CO2 at 37° C. Islets from each condition were then pooled and sonicated in 200 μl of redestilled water. A 50 μl aliquot of the homogenate was mixed with 125 μl acid ethanol (0.18 M HCl in 95% ethanol) and insulin extracted overnight. Insulin concentration in the sonicate and the culture medium was determined with radioimmunoassay.

Rat islets [3] = experiment: Proinsulin and total protein biosynthesis after streptozotocin exposure; assay type: cell-based, Sprague-Dawley rats
Experimental: as §1, §3
For each condition duplicate samples of 20 islets were transferred to multiwell plates containing 100 μl KRBH with L-[4.5-^3H]leucine (50 μCi/ml), 2 mg/mL BSA and 16.7 mM glucose and incubated for 120 minutes in 5% C02 at 37° C. Islets were then washed in Hanks' solution supplemented with 10 mM nonradioactive leucine and subsequently sonicated in 200 μl of redestilled water. A 50 μl fraction of the aqueous homogenate was incubated for 90 minutes with insulin antibodies coupled to Sepharose beads to separate proinsulin from other labelled proteins (15). Total protein biosynthesis was obtained by precipitating the labelled proteins with trichloroacetic acid (TCA). The antibody bound and TCA precipitable radioactivity were determined in a liquid scintillation counter.

Rat islets [4] = experiment: Glucose oxidation after streptozotocin exposure; assay type: cell-based, Sprague-Dawley rats
Experimental: as §1, §2
Groups of 10 islets were transferred to glass vials with 100 μl KRBH supplemented with D-[U^14C]glucose and nonradioactive glucose to a final concentration of 16.7 mM glucose. […] Scintillation fluid was then added to each flask and the radioactivity counted in a liquid scintillation counter.

Rat islets [5] = experiment: Insulin release after alloxan exposure; assay type: cell-based, Sprague-Dawley rats; details: for counteraction of alloxan-induced reduction of insulin release: 0.3 mM opener, simultaneous incubation with 0.5 mM alloxan
Experimental: as §1, §3, §4

Rat islets [6] = experiment: Glucose oxidation after alloxan exposure; assay type: cell-based, Sprague-Dawley rats; details: for glucose oxidation rate, of control: islets treated with 0.5 mM alloxan in the presence of opener, 24 hours
Experimental: as §1, §3
Groups of 10 islets were transferred to glass vials with 100 μl KRBH supplemented with D-[U^14C]glucose and nonradioactive glucose to a final concentration of 16.7 mM glucose. Triplicate samples were used. The vials were suspended in scintillation flasks, gassed with 5% CO2 and sealed airtight. The flasks were then shaken for 90 minutes at 37° C. Metabolism was stopped by injection of 100 μl of 0.05 mM antimycin A into the center vial. Immediately thereafter 250 μl hyamine hydroxide was injected into the outer flask. CO2 was released from the incubation medium by injecting 100 μl of 0.4 M Na2HPO4 solution (pH 6.0) into the center vial. […] Scintillation fluid was then added to each flask and the radioactivity counted in a liquid scintillation counter.

[7] = 0.3 mM test compound + 0.5 mM STZ
[8] = remaining islets after STZ 0.5 mM
[9] = recovered STZ islets at 24 hours

CC(N/C(=N\C#N)Nc1ccncc1)C(C)(C)C (stereo not drawn) [pinacidil]
effect in ischemic heart (ischemic heart): beneficial, cardioprotective effect

CC(C)NC1=NS(=O)(=O)c2sc(Cl)cc2N1 [6-Chloro-3-isopropylamino-4H-thieno[3,2-e]-1,2,4-thiadiazine 1,1-dioxide]
islet loss (Rat islets [1]; 0.3 mM test compound preincubated 30 minutes + 0.5 mM STZ, 24 hours culture): no islet loss | insulin content compared to islets incubated with STZ alone (Rat islets [2]): higher | insulin secretion compared to islets incubated with STZ alone (Rat islets [2]): higher | insulin biosynthesis compared to islets incubated with STZ alone (Rat islets [3]; [7]): higher | glucose oxidation rate compared to islets incubated with STZ alone (Rat islets [4]; [7]): higher | counteraction of alloxan-induced reduction of insulin release (Rat islets [5]): fully counteracted | glucose oxidation rate, of control (Rat islets [6]): did not differ from control

CC1=NS(=O)(=O)c2cc(Cl)ccc2N1 [diazoxide]
insulin content compared to islets incubated with STZ alone (Rat islets [2]): higher | insulin secretion compared to islets incubated with STZ alone (Rat islets [2]): higher | counteraction of alloxan-induced reduction of insulin release (Rat islets [5]): fully counteracted | glucose oxidation rate, of control (Rat islets [6]): 73% | effect in ischemic heart (ischemic heart): beneficial, cardioprotective effect

CC1(C)Oc2ccc(C#N)cc2C(N2CCCC2=O)C1O (stereo not drawn) [cromakalim]
effect in ischemic heart (ischemic heart): beneficial, cardioprotective effect

CN(N=O)C(=O)N[C@H]1C(O)O[C@H](CO)[C@@H](O)[C@@H]1O (mixture of isomers) [STZ, streptozotocin]
islet loss (Rat islets [1]; STZ 0.5 mM for 30 minutes, then 24 hours culture): 40% | insulin content, of control (Rat islets [2]; [8]): 50% | insulin secretion, of control (Rat islets [2]; [8]): 60% | proinsulin biosynthesis, of control (Rat islets [3]; [9]): 35% | total protein biosynthesis, of control (Rat islets [3]; [9]): 51% | proinsulin/total protein biosynthesis ratio (Rat islets [3]; recovered STZ islets at 24 hours, 23% in control islets): 15% | insulin biosynthesis, of control (Rat islets [3]; remaining islets after STZ 0.5 mM, 24 hours): 35% | rate of glucose oxidation, of control (Rat islets [4]; islets after STZ 0.5 mM, 24 hours): 16%

O=C1NC(=O)C(=O)C(=O)N1 [alloxan]
reduction of insulin release (Rat islets [5]; 0.5 mM alloxan): 31% | decrease of glucose oxidation rate (Rat islets [6]; 0.5 mM alloxan, after 24 hours): 51%
